According to ChEMBL document CHEMBL1201862, “PubChem BioAssay data set” (2004):
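Cells were grown in 96-well plates and exposed to each compound for 48 hours at five concentrations; endpoints were interpolated linearly between bracketing concentrations, or set to the highest concentration if not reached. At the GI50, growth is halved.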 Activity calls are given as the source filed them. Cut-off read from the data, not from the text of the source: active = GI50 up to about 1.1 µM and inactive = higher. *1 amine or outer side, *2 acyl side, *3 side chain or, on linkers, in order; H or OH if unused. Where a SMILES comes first, the peptide text is derived from it. [ ]: non-standard residue; d: D form. The star is where a group is joined. ξ: configuration not given here. NMeY = CN[C@@H](Cc1ccc(O)cc1)C(=O)O; Ethylenediamine = C(CN[*:2])N[*:1]; ξNMeL = CNC(CC(C)C)C(=O)O; Cbz = O=C(OCc1ccccc1)*; Lac = C[C@H](O)C(=O)O; ξA = CC(N)C(=O)O

Key:
Experiment in all cases: inhibition of tumour cell growth, NCI panel, 48 h
[1] = test system: A498
[2] = test system: A549
[3] = test system: ACHN
[4] = test system: CAKI-1
[5] = test system: COLO 205
[6] = test system: DLD-1
[7] = test system: DMS-114
[8] = test system: DMS-273
[9] = test system: EKVX
[10] = test system: HCC 2998
[11] = test system: HCT-116
[12] = test system: HCT-15
[13] = test system: HOP-92
[14] = test system: HT-29
[15] = test system: IGROV-1
[16] = test system: LOX IMVI
[17] = test system: LXFL 529
[18] = test system: M14
[19] = test system: NCI-H226
[20] = test system: NCI-H23
[21] = test system: NCI-H460
[22] = test system: OVCAR-3
[23] = test system: OVCAR-4
[24] = test system: OVCAR-5
[25] = test system: OVCAR-8
[26] = test system: RXF 393
[27] = test system: SF-268
[28] = test system: SF-295
[29] = test system: SF-539
[30] = test system: SK-MEL-28
[31] = test system: SK-MEL-5
[32] = test system: SK-OV-3
[33] = test system: SN12C
[34] = test system: SNB-19
[35] = test system: SNB-75
[36] = test system: SW-620
[37] = test system: TK-10
[38] = test system: UACC-257
[39] = test system: UACC-62
[40] = test system: UO-31
[41] = test system: 786-0
[42] = test system: BT-549
[43] = test system: CCRF-CEM
[44] = test system: DU-145
[45] = test system: HL-60
[46] = test system: HOP-62
[47] = test system: Hs-578T
[48] = test system: K562
[49] = test system: KM12
[50] = test system: MCF7
[51] = test system: MDA-MB-231
[52] = test system: MDA-MB-435
[53] = test system: MDA-N
[54] = test system: MOLT-4
[55] = test system: Malme-3M
[56] = test system: NCI-H522
[57] = test system: NCI/ADR-RES
[58] = test system: PC-3
[59] = test system: RPMI-8226
[60] = test system: SK-MEL-2
[61] = test system: SR
[62] = test system: T47D
[63] = test system: U-251

Measured: GI50

O=C1NC(=S)S/C1=C/c1ccco1
> 100 µM: [12]
inactive: [1] 11.1 µM | [2] > 100 µM | [3] > 100 µM | [4] > 100 µM | [5] > 100 µM | [6] > 100 µM | [7] > 100 µM | [8] > 100 µM | [9] > 100 µM | [10] > 100 µM | [11] > 100 µM | [13] 49.4 µM | [14] > 100 µM | [15] > 100 µM | [16] > 100 µM | [17] > 100 µM | [18] > 100 µM | [19] > 100 µM | [20] > 100 µM | [21] > 100 µM | [22] 50.1 µM | [23] > 100 µM | [24] > 100 µM | [25] > 100 µM | [26] > 100 µM | [27] > 100 µM | [28] > 100 µM | [29] > 100 µM | [30] > 100 µM | [31] > 100 µM | [32] > 100 µM | [33] > 100 µM | [34] > 100 µM | [35] > 100 µM | [36] > 100 µM | [37] > 100 µM | [38] 46.3 µM | [39] > 100 µM | [40] > 100 µM

O=[N+]([O-])c1cccc2nc3ccccc3c(NCCCn3ccnc3[N+](=O)[O-])c12
0.000131 µM: [12]
active: [41] 0.000175 µM | [1] 0.000227 µM | [2] 0.000122 µM | [3] 0.000161 µM | [42] < 0.0001 µM | [4] 0.000385 µM | [43] 0.00574 µM | [5] 0.000109 µM | [44] < 0.0001 µM | [9] 0.000298 µM | [10] 0.000156 µM | [11] < 0.0001 µM | [45] 0.000889 µM | [46] 0.000785 µM | [13] 0.000187 µM | [14] < 0.0001 µM | [47] 0.0169 µM | [15] 0.00389 µM | [48] < 0.0001 µM | [49] 0.000114 µM | [16] 0.0158 µM | [18] < 0.0001 µM | [50] < 0.0001 µM | [51] 0.000168 µM | [52] < 0.0001 µM | [53] < 0.0001 µM | [54] 0.000336 µM | [55] 0.00023 µM | [19] 0.000245 µM | [20] 0.0003 µM | [21] < 0.0001 µM | [56] 0.00046 µM | [57] 0.0238 µM | [22] 0.00309 µM | [23] 0.0104 µM | [24] 0.00017 µM | [25] 0.000111 µM | [58] 0.000598 µM | [59] < 0.0001 µM | [26] 0.000139 µM | [27] 0.000819 µM | [28] 0.0117 µM | [29] 0.00137 µM | [30] 0.00189 µM | [60] 0.000235 µM | [31] < 0.0001 µM | [32] 0.0229 µM | [33] 0.000282 µM | [34] 0.000366 µM | [35] 0.0137 µM | [61] 0.02 µM | [36] < 0.0001 µM | [62] 0.0407 µM | [37] 0.00367 µM | [63] 0.000213 µM | [38] 0.0039 µM | [39] 0.000959 µM | [40] 0.00076 µM

O=c1c2nn3c(=O)n(-c4ccccc4)c(=O)c3nn2c(=O)n1-c1ccccc1
inactive: [41] > 100 µM | [1] 50.4 µM | [2] > 100 µM | [3] > 100 µM | [42] > 100 µM | [4] > 100 µM | [43] 56 µM | [5] > 100 µM | [44] > 100 µM | [9] > 100 µM | [10] > 100 µM | [11] > 100 µM | [45] > 100 µM | [46] > 100 µM | [13] > 100 µM | [14] > 100 µM | [47] > 100 µM | [15] > 100 µM | [48] > 100 µM | [49] > 100 µM | [16] > 100 µM | [18] > 100 µM | [50] > 100 µM | [51] > 100 µM | [52] > 100 µM | [53] > 100 µM | [54] > 100 µM | [55] > 100 µM | [19] > 100 µM | [20] > 100 µM | [21] > 100 µM | [56] > 100 µM | [57] > 100 µM | [22] > 100 µM | [23] > 100 µM | [24] > 100 µM | [25] > 100 µM | [58] > 100 µM | [59] > 100 µM | [26] > 100 µM | [27] > 100 µM | [28] 54.1 µM | [29] > 100 µM | [30] > 100 µM | [60] > 100 µM | [31] > 100 µM | [32] > 100 µM | [33] > 100 µM | [34] > 100 µM | [35] 81.3 µM | [61] > 100 µM | [36] > 100 µM | [62] > 100 µM | [37] > 100 µM | [63] > 100 µM | [38] > 100 µM | [39] > 100 µM | [40] > 100 µM
> 100 µM: [12]

ClCc1nn(-c2ccccc2)c(CCl)c1CCl
3.33 µM: [12]
inactive: [41] 2.56 µM | [1] 12 µM | [2] 7.66 µM | [3] 2.96 µM | [42] 3.77 µM | [4] 7.31 µM | [43] 1.17 µM | [5] 3.88 µM | [44] 4.68 µM | [9] 3.03 µM | [10] 12.1 µM | [11] 2.33 µM | [45] 1.82 µM | [46] 15.8 µM | [13] 3.33 µM | [14] 3.43 µM | [47] 14.5 µM | [15] 3.44 µM | [48] 2.54 µM | [49] 3.37 µM | [16] 1.47 µM | [18] 3.3 µM | [50] 2.38 µM | [51] 4.34 µM | [52] 2.41 µM | [53] 2.88 µM | [54] 1.72 µM | [55] 2.99 µM | [19] 4.45 µM | [20] 4.46 µM | [21] 2.66 µM | [56] 4.25 µM | [57] 5.57 µM | [22] 3.47 µM | [23] 2.72 µM | [24] 7.16 µM | [25] 2.35 µM | [58] 5.71 µM | [59] 2.52 µM | [26] 4.82 µM | [27] 3.27 µM | [28] 6 µM | [29] 2.34 µM | [30] 5.32 µM | [60] 5.71 µM | [31] 2.68 µM | [32] 8.89 µM | [33] 3.11 µM | [34] 6.73 µM | [35] 1.74 µM | [36] 2.55 µM | [62] 3.55 µM | [37] 8.39 µM | [63] 2.35 µM | [38] 7.76 µM | [39] 3.47 µM | [40] 4.74 µM
active: [61] 0.813 µM

COc1ccc(C[C@@H](C(=O)NCCNC(=O)C(CC(C)C)N(C)C(=O)[C@@H]2CCCN2C(=O)[C@H](C)O)N(C)C(=O)[C@@H]2CCCN2C(=O)[C@H](CC(C)C)NC(=O)C(C)NC(=O)OCc2ccccc2)cc1 (stereo partly specified) (Cbz-[ξA]LP[NMeY](Me)-{Ethylenediamine-ξNMeL-Pro-Lac})
inactive: [41] > 100 µM | [1] > 100 µM | [2] > 100 µM | [3] > 100 µM | [42] > 100 µM | [4] > 100 µM | [43] 34.6 µM | [5] 77.6 µM | [44] > 100 µM | [9] > 100 µM | [10] > 100 µM | [11] > 100 µM | [45] 38.4 µM | [46] > 100 µM | [13] 68.9 µM | [14] 72.3 µM | [47] 12.9 µM | [15] > 100 µM | [48] 40.6 µM | [49] > 100 µM | [16] 37 µM | [18] > 100 µM | [50] 43.9 µM | [51] 91.4 µM | [52] 54.2 µM | [53] 66.8 µM | [54] 29 µM | [55] > 100 µM | [19] > 100 µM | [20] > 100 µM | [21] > 100 µM | [56] > 100 µM | [57] > 100 µM | [22] > 100 µM | [23] > 100 µM | [24] > 100 µM | [25] > 100 µM | [58] > 100 µM | [59] 33.9 µM | [26] 97.7 µM | [27] > 100 µM | [28] > 100 µM | [29] > 100 µM | [30] > 100 µM | [60] > 100 µM | [31] 33.5 µM | [32] > 100 µM | [33] > 100 µM | [34] > 100 µM | [35] 89.5 µM | [61] 54.3 µM | [36] > 100 µM | [62] 72.6 µM | [37] > 100 µM | [63] > 100 µM | [38] 46.1 µM | [39] 96.2 µM | [40] > 100 µM
82 µM: [12]
